These results are taken from PubChem BioAssay AID328 (DTP/NCI, 2004).

Values joined by “and” are separate entries in the source; they are usually repeats but may differ in a detail not shown here. Equal entries are not always repeated. Toxic doses and inconclusive results are not listed.

This assay has as its system BDF1 mice, P388 leukemia ip, median survival T/C. In words: NCI In Vivo Anticancer Drug Screen. Data for tumor model P388 Leukemia (intraperitoneal) in B6D2F1 (BDF1) mice. Particulars: endpoint: median survival time, higher = longer survival. In a few lines:
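Compound-treated tumour-bearing mice were compared with vehicle-treated controls. Survival was recorded, and the value is the treated-group measurement divided by the control-group measurement (T/C).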

The mark [1] stands for this setting: dose: 50.0 mg/kg/injection, schedule: Q04DX003 (ip), vehicle: saline with Tween-80.
Where [2] appears, read: dose: 100.0 mg/kg/injection, schedule: Q04DX003 (ip), vehicle: saline with Tween-80.
[3] abbreviates: dose: 50.0 mg/kg/injection, schedule: Q01DX009 (ip), vehicle: saline with Tween-80.
Where [4] appears, read: dose: 100.0 mg/kg/injection, schedule: Q01DX009 (ip), vehicle: saline with Tween-80.
Setting [5] is: dose: 200.0 mg/kg/injection, schedule: Q01DX009 (ip), vehicle: saline with Tween-80.
Where [6] appears, read: dose: 200.0 mg/kg/injection, schedule: Q04DX003 (ip), vehicle: saline with Tween-80.
The mark [7] stands for this setting: dose: 400.0 mg/kg/injection, schedule: Q04DX003 (ip), vehicle: saline with Tween-80.
Where [8] appears, read: dose: 50.0 mg/kg/injection, schedule: Q01DX005 (ip), vehicle: saline with Tween-80.
The mark [9] stands for this setting: dose: 100.0 mg/kg/injection, schedule: Q01DX005 (ip), vehicle: saline with Tween-80.
Setting [10] is: dose: 200.0 mg/kg/injection, schedule: Q01DX005 (ip), vehicle: saline with Tween-80.

As to `Cc1cnc(Cl)nc1Sc1nc(N)nc2nc[nH]c12`, the T/C reads like this: (dose: 6.0 mg/kg/injection, schedule: Q01DX009 (ip), vehicle: saline with Tween-80) 184 % of control; (dose: 33.0 mg/kg/injection, schedule: Q04DX003 (ip), vehicle: saline with Tween-80) 118 % of control; under setting [1], 122 % of control; (dose: 75.0 mg/kg/injection, schedule: Q04DX003 (ip), vehicle: saline with Tween-80) 109 % of control; under setting [2], 100 % of control.

As for `CC1(C)O[C@]2(C)CC[C@@H]1[C@@H](O)[C@@H]2N1CCCC1`, the T/C was 95 % of control (dose: 50.0 mg/kg/injection, schedule: Q01DX005 (ip), vehicle: saline); 106 % of control (dose: 100.0 mg/kg/injection, schedule: Q01DX005 (ip), vehicle: saline); 106 % of control (dose: 200.0 mg/kg/injection, schedule: Q01DX005 (ip), vehicle: saline).

For `CSC1SCC2C(=O)N(C)C(C(C)C)C(=O)OCC(NC(=O)c3cnc4ccccc4n3)C(=O)NC(C)C(=O)N(C)C1C(=O)N(C)C(C(C)C)C(=O)OCC(NC(=O)c1cnc3ccccc3n1)C(=O)NC(C)C(=O)N2C` (stereo not drawn), the T/C is, setting by setting: (dose: 0.4 micrograms/kg/injection, schedule: Q01DX009 (ip), vehicle: saline with Tween-80) 86 % of control; (dose: 0.9 micrograms/kg/injection, schedule: Q01DX009 (ip), vehicle: saline with Tween-80) 89 % of control; (dose: 1.9 micrograms/kg/injection, schedule: Q01DX009 (ip), vehicle: saline with Tween-80) 112 % of control; (dose: 3.8 micrograms/kg/injection, schedule: Q01DX009 (ip), vehicle: saline with Tween-80) 96 % of control; (dose: 5.0 micrograms/kg/injection, schedule: Q01DX010 (ip), vehicle: saline) 118 % of control; (dose: 20.0 micrograms/kg/injection, schedule: Q01DX010 (ip), vehicle: saline) 95 % of control. The T/C (dose: 30.0 micrograms/kg/injection, schedule: Q01DX009 (ip), vehicle: saline with Tween-80) was 175 % of control.

In the case of `CC1=CC23C(COC(=O)C24CO4)C(C(=O)O)=CC3C1C` (stereo not drawn) (tested in a mixture with another compound), the T/C reads like this: (dose: 0.06 mg/kg/injection, schedule: Q01DX009 (ip), vehicle: Klucel (hydroxypropylcellulose) (HPC)) 105 % of control; (dose: 0.13 mg/kg/injection, schedule: Q01DX009 (ip), vehicle: Klucel (hydroxypropylcellulose) (HPC)) 100 % of control; (dose: 0.25 mg/kg/injection, schedule: Q01DX009 (ip), vehicle: Klucel (hydroxypropylcellulose) (HPC)) 105 % of control and 116 % of control.

With `COc1cc(Cc2nccc3cc(OC)c(OC)cc23)c(C(C)=O)cc1OC`, the T/C runs as follows: (dose: 8.0 mg/kg/injection, schedule: Q01DX009 (ip), vehicle: saline) 153 % of control; (dose: 8.2 mg/kg/injection, schedule: Q01DX009 (ip), vehicle: saline sonified) 150 % of control; (dose: 12.5 mg/kg/injection, schedule: Q01DX009 (ip), vehicle: saline sonified) 155 % of control; (dose: 18.75 mg/kg/injection, schedule: Q01DX009 (ip), vehicle: saline sonified) 195 % of control.

Regarding `O=C(Oc1ccccc1[N+](=O)[O-])c1ccccc1`, the T/C (dose: 25.0 mg/kg/injection, schedule: Q04DX003 (ip), vehicle: other) was 100 % of control; the T/C (dose: 75.0 mg/kg/injection, schedule: Q04DX003 (ip), vehicle: other) is 100 % of control; the T/C (dose: 150.0 mg/kg/injection, schedule: Q04DX003 (ip), vehicle: other) was 95 % of control; the T/C (dose: 400.0 mg/kg/injection, schedule: Q04DX003 (ip), vehicle: other) was 90 % of control.

With `O=S1(=O)C(C(O)(c2ccccc2)c2ccccc2)CCCN1c1ccccc1` (stereo not drawn), the T/C reads like this: under setting [3], 100 % of control; under setting [4], 91 % of control; under setting [5], 97 % of control.

As for `CCN(CC)c1ccc(NC(=O)NC(C)C)cc1`, the T/C is 90 % of control under setting [1], 90 % of control under setting [2] and 86 % of control under setting [6].

As to `CC1(C)C2CC3C(C(=O)O)CCCC3(C2)C1Br` (stereo not drawn), the T/C is 90 % of control (dose: 100.0 mg/kg/injection, schedule: Q04DX003 (ip), vehicle: Klucel (hydroxypropylcellulose) (HPC)); 100 % of control (dose: 200.0 mg/kg/injection, schedule: Q04DX003 (ip), vehicle: Klucel (hydroxypropylcellulose) (HPC)); 95 % of control (dose: 400.0 mg/kg/injection, schedule: Q04DX003 (ip), vehicle: Klucel (hydroxypropylcellulose) (HPC)).

On to `O=[N+]([O-])c1cccc(OCCOc2ccccc2)c1`, for which the T/C is, setting by setting: under setting [2], 100 % of control; under setting [6], 115 % of control; under setting [7], 105 % of control.

As to `O=c1cc(CBr)c2ccccc2[nH]1`, the T/C reads like this: (dose: 6.25 mg/kg/injection, schedule: Q04DX003 (ip), vehicle: saline with Tween-80) 91 % of control; (dose: 12.5 mg/kg/injection, schedule: Q04DX003 (ip), vehicle: saline with Tween-80) 104 % of control; (dose: 25.0 mg/kg/injection, schedule: Q04DX003 (ip), vehicle: saline with Tween-80) 104 % of control.

Turning to `NC(=O)Nc1cc(NC(N)=O)cc(N(CCO)CCO)c1`, the T/C is 94 % of control (dose: 50.0 mg/kg/injection, schedule: Q01DX009 (ip), vehicle: water); 102 % of control (dose: 100.0 mg/kg/injection, schedule: Q01DX009 (ip), vehicle: water); 118 % of control (dose: 100.0 mg/kg/injection, schedule: Q04DX003 (ip), vehicle: water); 96 % of control (dose: 200.0 mg/kg/injection, schedule: Q01DX009 (ip), vehicle: water); 102 % of control (dose: 200.0 mg/kg/injection, schedule: Q04DX003 (ip), vehicle: water); 100 % of control (dose: 400.0 mg/kg/injection, schedule: Q01DX009 (ip), vehicle: water). Further, the T/C (dose: 400.0 mg/kg/injection, schedule: Q04DX003 (ip), vehicle: water) is 102 % of control.

As for `CC(O)C(O)C(N)CC=O` (stereo not drawn), the T/C reads like this: (dose: 1.25 mg/kg/injection, schedule: Q01DX001 (ip), vehicle: saline) 100 % of control and 110 % of control; (dose: 2.5 mg/kg/injection, schedule: Q01DX001 (ip), vehicle: saline) 100 % of control and 110 % of control; (dose: 5.0 mg/kg/injection, schedule: Q01DX001 (ip), vehicle: saline) 100 % of control and 110 % of control; (dose: 10.0 mg/kg/injection, schedule: Q01DX001 (ip), vehicle: saline) 100 % of control and 105 % of control.

For the molecule `O=C1NC(=O)C(c2ccc(Cl)cc2)(c2ccccc2Cl)N1` (stereo not drawn), the T/C runs as follows: (dose: 100.0 mg/kg/injection, schedule: Q04DX003 (ip), vehicle: saline sonified) 100 % of control; (dose: 200.0 mg/kg/injection, schedule: Q04DX003 (ip), vehicle: saline sonified) 95 % of control; (dose: 400.0 mg/kg/injection, schedule: Q04DX003 (ip), vehicle: saline sonified) 100 % of control.

Take `CCCCC(C)C(=O)CC(SCC)c1ccc(Cl)c(Cl)c1` (stereo not drawn): the T/C under setting [3] is 99 % of control, the T/C under setting [4] is 99 % of control and the T/C under setting [5] is 96 % of control.

Turning to `CCOC(=O)/C(C#N)=C/N=c1ncccn1C`, the T/C was 98 % of control under setting [2], 93 % of control under setting [6] and 102 % of control under setting [7].

As for `O=C1c2c(O)ccc(O)c2C(=O)c2c(NCCNCCO)ccc(NCCNCCO)c21`, the T/C is, setting by setting: (dose: 0.78 mg/kg/injection, schedule: Q01DX009 (ip), vehicle: water) 270 % of control; (dose: 1.56 mg/kg/injection, schedule: Q01DX009 (ip), vehicle: water) 181 % of control; (dose: 3.13 mg/kg/injection, schedule: Q01DX009 (ip), vehicle: water) 90 % of control.

As for `Cc1ccc(NC(=O)c2ccccc2C(=O)O)cc1C`, the T/C under setting [2] was 118 % of control, the T/C under setting [6] is 100 % of control and the T/C under setting [7] was 118 % of control.

With `Cc1nc2ccccc2c(=O)n1-c1nccs1`, the T/C by setting is: under setting [8], 102 % of control; under setting [9], 107 % of control; under setting [10], 102 % of control.

For the molecule `COc1ccc(C2C(C#N)=C(N)NC(=O)C2C(N)=O)cc1` (stereo not drawn), the T/C is 92 % of control under setting [8], 89 % of control under setting [9] and 92 % of control under setting [10].
